{
  "source": "patent US20180028552A1",
  "about": "“COMBINATION THERAPY FOR TREATING CANCER” (Epizyme, Inc., priority 2015, published 2018)",
  "key": {"NOMO-1 (MLL-AF9) cells [1]": {"test_system": "NOMO-1 (MLL-AF9) cells", "assay": "Cell death / cell kill in NOMO-1 cells (Annexin V/7-AAD)", "format": "cell-based", "conditions": "for resistance of cell line to the agent: sensitive is defined as IC50 ≤ 3 μM", "experimental": "(§1) FIGS. 4A-4H are a series of schematics and graphs that depict the effect on cellular differentiation of AZA priming in AML cell lines. […] FIG. 4C depicts AZA dose response curves for an AML cell line panel. […] For the flow cytometry assays, Annexin V/7-AAD staining was used to assess cell death, and CD11b/CD14 antibodies were used to evaluate cellular differentiation. […] Flow cytometry assays were also performed to assess cellular differentiation and cell death following AZA priming followed by treatment of the cells with 0.5 μM EPZ-5676."}, "ML-2 (MLL-AF6) cells [2]": {"test_system": "ML-2 (MLL-AF6) cells", "assay": "Cellular differentiation assay in ML-2 cells", "format": "cell-based", "conditions": "for cellular differentiation (CD14+ differentiated cell population): 0.5 μM EPZ-5676, day not given"}, "MV4-11 (MLL-AF4) cells [3]": {"test_system": "MV4-11 (MLL-AF4) cells", "assay": "Cell death / cell kill in MV4-11 cells (Annexin V/7-AAD flow cytometry, CTG, cell count, Incucyte caspase 3/7)", "format": "cell-based", "conditions": "for cell death in a dose response experiment: single agent dose response", "description": "FIG. 2A depicts three experimental conditions: 1) MV4-11 cells were contacted with AZA for three consecutive days, followed by treatment with EPZ-5676 on the second, fourth, sixth, and ninth day; 2) the MV4-11 cells were contacted with vehicle for three consecutive days, followed by treatment with EPZ-5676 on the second, fourth, sixth, and ninth day; and 3) the MV4-11 cells were contacted with vehicle for three consecutive days, followed by contact with vehicle on the second, fourth, sixth, and ninth day.\nFIGS. 5A-5F are a series of graphs that depict real-time imaging to study the effect of AZA priming on MV4-11 cells utilizing Incucyte Zoom® for suspension cell imaging. […] The Kinetic Caspase 3/7 reagent was used to assess cell death (FIG. 5B). For these assays, 6,000 cells were plated per well of a 96-well plate and dosed with EPZ-5676 using a ten point concentration gradient starting from 10 μM. 1× caspase dye was then added to each well. FIG. 5C is a series of graphs that depict real-time monitoring of cell death using Caspase 3/7 kinetic dye. […] FIG. 5E is a series of graphs that depict real-time monitoring of AUC Growth by Red object (labeled cell) count. FIG. 5F is a series of graphs that depicts cellular AUC growth following vehicle or AZA priming followed by treatment with EPZ-5676, and control conditions including vehicle alone, DMSO.\nIn this study of Example 1, the flexibility of treatment schedules when EPZ-5676 was combined with Azacitidine in MLL-r cells was evaluated.\nCompounds were evaluated for cell killing effects as single agents and in combination according to the methods described in the experimental setup."}, "MV4-11 tumors": {"test_system": "MV4-11 tumors", "assay": "MV4-11 subcutaneous xenograft efficacy study in nude rats", "format": "in vivo, rat", "conditions": "single agent at the MTD (Azacitidine 2 mg/kg, Cytarabine 200 mg/kg), intraperitoneal once daily for 14 days", "protocol": "(§2) To follow up on these findings and to determine if combinations were tolerable and efficacious in vivo, nude rats implanted subcutaneously with MV4-11 tumors were dosed using a range of doses and schedules. […] In preparation for an efficacy combination study, the Azacitidine and Cytarabine single agent activity in a MV4-11 model was determined.\n(§3) 35 mg/kg/day EPZ-5676 was administered by continous IV (CIV) infusion while Azacitdine and Cytarabine was dosed daily by intraperitoneal injection at 2 and 200 mg/kg respectively. […] The tumor volumes are represented as the median tumor volumes mm^3 of the group."}, "ML-2 (MLL-AF6) cells [4]": {"test_system": "ML-2 (MLL-AF6) cells", "assay": "Cell death / cell kill in ML-2 cells", "format": "cell-based", "conditions": "for cell death: 0.5 μM EPZ-5676, day not given"}, "RS4;11 (MLL-AF4) cells [5]": {"test_system": "RS4;11 (MLL-AF4) cells", "assay": "Cellular differentiation assay in RS4;11 cells", "format": "cell-based", "conditions": "for cellular differentiation: 0.5 μM EPZ-5676, day not given"}, "in vivo": {"assay": "in vivo", "conditions": "nude, rat, ip", "protocol": "as §2, §3"}, "RS4;11 (MLL-AF4) cells [6]": {"test_system": "RS4;11 (MLL-AF4) cells", "assay": "Cell death / cell kill in RS4;11 cells", "format": "cell-based", "conditions": "for cell death / cell kill: 0.5 μM EPZ-5676, day not given"}, "[7]": {"test_system": "REH (non-rearranged control)", "assay": "Cell kill combination study in REH cells", "format": "cell-based", "conditions": "sensitive is defined as IC50 ≤ 3 μM"}, "HOXA9": {"test_system": "HOXA9", "assay": "HOXA9 expression", "format": "cell-based", "conditions": "dose dependent", "from_the_text": "For example, a gene expression assay that can be used includes the steps of (1) culturing cells (e.g., EOL-1, KOPM-88, Molm13, MV411, LOUCY, SemK2, Reh, HL60, BV173, or Jurkat cells) in the presence or absence of a compound (e.g., Compound A2 and/or a DNMT inhibitor); (2) harvesting the cells; (3) extracting the RNA using methods known in the art (e.g., Qiagen RNeasy Kit); (4) synthesizing cDNA from the extracted RNA (e.g., Applied Biosystems reverse transcriptase kit); (5) preparing qPCR reactions using, for example, primers and probes (e.g., predesigned labeled primer and probe sets for HOXA9, FLT3, MEIS1, MEIS2, TBP, BCL, DOT1L, and β2-microglobulin from Applied Biosystems), synthesized sample cDNA, and qPCR master mix reagent (e.g., Applied Biosystems Taqman universal PCR master mix); (6) running samples on PCR machine (e.g., Applied Biosystems); (7) analysis of the data and calculation of relative gene expression."}, "MV4-11 (MLL-AF4) cells [8]": {"test_system": "MV4-11 (MLL-AF4) cells", "assay": "Cellular differentiation assay (CD11b/CD14 flow cytometry) in MV4-11 cells", "format": "cell-based", "experimental": "FIGS. 4A-4H are a series of schematics and graphs that depict the effect on cellular differentiation of AZA priming in AML cell lines. FIGS. 4A and 4B are a series of schematics that depict the experimental setup of the assays performed to determine differentiation and cell death. FIG. 4C depicts AZA dose response curves for an AML cell line panel. FIGS. 4D-4G are a series of flow cytometry assays that were performed to assess cellular differentiation and cell death in the NOMO-1 acute myeloid leukemia cell line. For the flow cytometry assays, Annexin V/7-AAD staining was used to assess cell death, and CD11b/CD14 antibodies were used to evaluate cellular differentiation. […] Flow cytometry assays were also performed to assess cellular differentiation and cell death following AZA priming followed by treatment of the cells with 0.5 μM EPZ-5676.\nFIGS. 6A-6D are a series of flow cytometry graphs that depict cellular differentiation and cell death following treatment of MV4-11 (MLL-AF4) cells with vehicle or AZA priming followed by 0.5 μM EPZ-5676, or vehicle only conditions."}, "NOMO-1 (MLL-AF9) cells [9]": {"test_system": "NOMO-1 (MLL-AF9) cells", "assay": "Cellular differentiation assay (CD11b/CD14) in NOMO-1 cells", "format": "cell-based", "conditions": "0.5 μM EPZ-5676; day not given", "experimental": "as §1"}, "[10]": {"test_system": "MLL rearranged leukemia xenograft", "conditions": "in vivo; cited from earlier work"}, "[11]": {"test_system": "histone H3K79 methylation", "conditions": "cited from earlier work"}, "MEIS1": {"test_system": "MEIS1", "assay": "MEIS1 mRNA expression in MV4-11 cell line", "format": "cell-based", "conditions": "with increased concentrations (dose dependent)", "experimental": "FIGS. 1A-1D are a series of graphs that depict mRNA expression levels of MEIS1 (FIGS. 1A and 1C) and HOXA2 (FIGS. 1B and 1D) in the MV4-11 cell line following treatment with AZA (also referred to herein as Azacitidine) and EPZ-5676. The data depicted in FIGS. 1A and 1B are from assays in which various concentrations of EPZ-5676 or DMSO alone, in combination with 1 μM AZA QD×3, 0.3 μM AZA QD×3, or vehicle alone were contacted with the cultured MV4-11 cells. (QD=daily dosage; QD×3=three day treatment). […]"}, "H3K79me2": {"test_system": "H3K79me2", "assay": "H3K79me2 ChIP-qPCR in MV4-11 cells", "format": "cell-based", "conditions": "0.5 μM EPZ-5676; 0.5 μM QD×3 AZA", "experimental": "FIGS. 3A-3D are a series of graphs that contain data obtained from H3K79me2 ChIP-qPCR assays of MV4-11 (MLL-AF4) cells at various time points following exposure to either vehicle alone, vehicle and 0.5 μM EPZ-5676, or 0.5 μM QD×3 AZA and 0.5 μM EPZ-5676."}, "[12]": {"conditions": "0.5 μM EPZ-5676 with or without AZA priming, day not given"}, "[13]": {"conditions": "sensitive is defined as IC50 ≤ 3 μM"}},
  "note": "pIC50: −log10 of the molar value. “Also recorded” adds a separate entry of the source.",
  "data": [
    {"smiles": "Nc1ncn([C@@H]2O[C@H](CO)[C@@H](O)[C@H]2O)c(=O)n1", "note": "[Azacitidine, reference compound]", "values": [
      {"measurement": "resistance of cell line to the agent", "setting": "NOMO-1 (MLL-AF9) cells [1]", "result": "resistant"},
      {"measurement": "cellular differentiation (CD14+ differentiated cell population)", "setting": "ML-2 (MLL-AF6) cells [2]", "result": "no effect"},
      {"measurement": "cell death in a dose response experiment", "setting": "MV4-11 (MLL-AF4) cells [3]", "result": "AZA induces cell death in MV4-11 cells"},
      {"measurement": "inhibition of subcutaneous MV4-11 tumor compared to vehicle control", "setting": "MV4-11 tumors", "result": 50, "unit": "%"},
      {"measurement": "cell death", "setting": "ML-2 (MLL-AF6) cells [4]", "result": "effect on cell death"},
      {"measurement": "cellular differentiation", "setting": "RS4;11 (MLL-AF4) cells [5]", "result": "no effect"},
      {"measurement": "MTD at 14 days", "setting": "in vivo", "result": 2, "unit": "mg/kg"},
      {"measurement": "cell death / cell kill", "setting": "RS4;11 (MLL-AF4) cells [6]", "result": "effect on cell death"}
    ]},
    {"smiles": "CC(C)N(C[C@H]1O[C@@H](n2cnc3c(N)ncnc32)[C@H](O)[C@@H]1O)[C@H]1C[C@@H](CCc2nc3cc(C(C)(C)C)ccc3[nH]2)C1", "note": "[EPZ-5676, pinometostat]", "values": [
      {"measurement": "cell death", "setting": "NOMO-1 (MLL-AF9) cells [1]; 0.5 μM EPZ-5676, day not given", "result": "no appreciable cell death"},
      {"measurement": "cell kill", "setting": "NOMO-1 (MLL-AF9) cells [1]; Day 6", "result": "No cell kill with EPZ-"},
      {"measurement": "cell kill", "setting": "NOMO-1 (MLL-AF9) cells [1]; Day 10", "result": "No cell kill with EPZ-"},
      {"measurement": "resistance of cell line to the agent", "setting": "NOMO-1 (MLL-AF9) cells [1]", "result": "resistant"},
      {"measurement": "resistance of cell line to the agent", "setting": "[7]", "result": "resistant"},
      {"measurement": "HOXA9 expression", "setting": "HOXA9", "result": "reduces"},
      {"measurement": "cellular differentiation (CD14 positive population)", "setting": "MV4-11 (MLL-AF4) cells [8]; [12]", "result": "no increase"},
      {"measurement": "CD11b+ cell population", "setting": "MV4-11 (MLL-AF4) cells [8]; Day 6", "result": "Depletion of CD11b+ cell"},
      {"measurement": "CD14+ cell population", "setting": "MV4-11 (MLL-AF4) cells [8]; Day 6", "result": "No increase in CD14+"},
      {"measurement": "CD11b+ cell population", "setting": "MV4-11 (MLL-AF4) cells [8]; Day 10", "result": "Depletion of CD11b+"},
      {"measurement": "CD14+ cell population", "setting": "MV4-11 (MLL-AF4) cells [8]; Day 10", "result": "No increase in CD14+—"},
      {"measurement": "amount of CD14+ cells", "setting": "NOMO-1 (MLL-AF9) cells [9]", "result": "increase"},
      {"measurement": "cellular differentiation (CD14+ differentiated cell population)", "setting": "ML-2 (MLL-AF6) cells [2]", "result": "no cell differentiation; also recorded: population as compared to no"},
      {"measurement": "differentiation", "setting": "ML-2 (MLL-AF6) cells [2]; Day 6", "result": "No differentiation"},
      {"measurement": "differentiation", "setting": "ML-2 (MLL-AF6) cells [2]; Day 10", "result": "No differentiation"},
      {"measurement": "tumor response", "setting": "[10]", "result": "complete tumor regressions"},
      {"measurement": "cell death", "setting": "MV4-11 (MLL-AF4) cells [3]; [12]", "result": "no appreciable cell death"},
      {"measurement": "pIC50", "setting": "MV4-11 (MLL-AF4) cells [3]; Homo sapiens, MV4-11, read-out: sensitivity of MV4-11 to EPZ-5676", "result": "≥ 5.52"},
      {"measurement": "cell death in a dose response experiment", "setting": "MV4-11 (MLL-AF4) cells [3]", "result": "EPZ-5676 does not induce cell death in"},
      {"measurement": "inhibition of intracellular histone H3K79 methylation", "setting": "[11]", "result": "selectively inhibits"},
      {"measurement": "MEIS1 mRNA levels / expression", "setting": "MEIS1", "result": "reduces"},
      {"measurement": "cell death", "setting": "ML-2 (MLL-AF6) cells [4]", "result": "no cell death"},
      {"measurement": "cell kill", "setting": "ML-2 (MLL-AF6) cells [4]; Day 6", "result": "No cell kill with EPZ-"},
      {"measurement": "cell kill", "setting": "ML-2 (MLL-AF6) cells [4]; Day 10", "result": "No cell kill with EPZ-"},
      {"measurement": "resistance of cell line to the agent", "setting": "ML-2 (MLL-AF6) cells [4]; [13]", "result": "resistant"},
      {"measurement": "H3K79me2 signal / mark (ChIP-qPCR, MEIS1 and HOXA9 genes)", "setting": "H3K79me2", "result": "reduced; also recorded: single agent both decrease H3K79me2"},
      {"measurement": "cellular differentiation", "setting": "RS4;11 (MLL-AF4) cells [5]", "result": "no cell differentiation"},
      {"measurement": "differentiation", "setting": "RS4;11 (MLL-AF4) cells [5]; Day 6", "result": "No differentiation"},
      {"measurement": "differentiation", "setting": "RS4;11 (MLL-AF4) cells [5]; Day 10", "result": "No differentiation"},
      {"measurement": "cell death / cell kill", "setting": "RS4;11 (MLL-AF4) cells [6]", "result": "no cell death"},
      {"measurement": "cell kill", "setting": "RS4;11 (MLL-AF4) cells [6]; Day 6", "result": "No cell kill with EPZ-"},
      {"measurement": "cell kill", "setting": "RS4;11 (MLL-AF4) cells [6]; Day 10", "result": "No cell kill with EPZ-"},
      {"measurement": "resistance of cell line to the agent", "setting": "RS4;11 (MLL-AF4) cells [6]; [13]", "result": "resistant"}
    ]},
    {"smiles": "Nc1ccn([C@@H]2O[C@H](CO)[C@@H](O)[C@@H]2O)c(=O)n1", "note": "[Cytarabine]", "values": [
      {"measurement": "inhibition of subcutaneous MV4-11 tumor compared to vehicle control", "setting": "MV4-11 tumors", "result": 50, "unit": "%"},
      {"measurement": "MTD at 14 days", "setting": "in vivo", "result": 200, "unit": "mg/kg"}
    ]}
  ]
}
